Experimental data: US20080268533A1, “Methods and Compositions Utilizing Myc and Gsk3Beta to Manipulate the Pluripotency of Embryonic Stem Cells” (University of Georgia Research Foundation, Inc., priority 2004, published 2008)
Residues, ends and D or L forms follow the SMILES beside them. *: point of attachment. Cbz = O=C(OCc1ccccc1)*

Experiments:
BG01 cells = assay: LY 294002 induced definitive endoderm (DE) formation, Sox17 Q-PCR; type: cell-based, human; settings: BG01 on matrigel in MEF-CM, 60 μM LY 294002, BIO approx. 0.1-5 μM, MeBIO approx. 1-5, 3-4 days, Sox17 mRNA by Q-PCR
Experimental: Q-PCT was performed using relative quantitation using SYBR Green chemistry on the Rotor Gene 3000 instrument (Corbett Research) and a two-step RT-PCR format. Primers were designed to lie over exon-exon boundaries or span introns of at least 800 bp when possible, as this has been empirically determined to eliminate amplification from contaminating genomic DNA.
Total RNA was isolated using RNeasy (Qiagen) and quantitated using RiboGreen (Molecular Probes). Reverse transcription from 350-500 ng of total RNA was carried out using the iScript reverse transcriptase kit (BioRad), which contains a mix of oligo-dT and random primers. Each 20 μL reaction was subsequently diluted up to 100 μL total volume and 3 μL was used in each 10 μL Q-PCR reaction containing 400 nM forward and reverse primers and 5 μL 2×SYBR Green master mix (Qiagen). Two step cycling parameters were used employing a 5 second denature at 85-94° C. (specifically selected according to the melting temp of the amplicon for each primer set) followed by a 45 second anneal/extend at 60° C. Fluorescence data was collected during the last 15 seconds of each extension phase. A three point, 10-fold dilution series was used to generate the standard curve for each run and cycle thresholds (Ct's) were converted to quantitative values based on this standard curve. The quantitated values for each sample were normalized to housekeeping gene performance and then average and standard deviations were calculated for triplicate samples. At the conclusion of PCR cycling, a melt curve analysis was performed to ascertain the specificity of the reaction. A single specific product was indicated by a single peak at the Tm appropriate for that PCR amplicon.
Both Cyclophilin G and GUS were used to calculate a normalization factor for all samples. The use of multiple HGs simultaneously reduces the variability inherent to the normalization process and increases the reliability of the relative gene expression values (Vandesompele et al., 2002, Genome Biol., 3:RESEARCH0034). […]

GSK3β^S9 phosphorylation = type: cell-based, murine; settings: 6 hours, CA 2 nM, OA 2 nM
Experimental: MESCs and d2 EBs were treated for the short-term (6 hours) with phosphatase inhibitors of varying specificities.

GSK3β [1] = biological target: T1, GSK3β (Mus musculus, UniProt Q9WV60); assay: GSK3β kinase assay on immunoprecipitate, MBP substrate; type: biochemical; settings: day 6 EB lysates, inhibitor 3 μM in ethanol
T1 construct: endogenous in cells; host or cells: day 6 embryoid bodies derived from mouse ES cells (D3 / R1-EGFP)
T1 sequence (Q9WV60 whole entry): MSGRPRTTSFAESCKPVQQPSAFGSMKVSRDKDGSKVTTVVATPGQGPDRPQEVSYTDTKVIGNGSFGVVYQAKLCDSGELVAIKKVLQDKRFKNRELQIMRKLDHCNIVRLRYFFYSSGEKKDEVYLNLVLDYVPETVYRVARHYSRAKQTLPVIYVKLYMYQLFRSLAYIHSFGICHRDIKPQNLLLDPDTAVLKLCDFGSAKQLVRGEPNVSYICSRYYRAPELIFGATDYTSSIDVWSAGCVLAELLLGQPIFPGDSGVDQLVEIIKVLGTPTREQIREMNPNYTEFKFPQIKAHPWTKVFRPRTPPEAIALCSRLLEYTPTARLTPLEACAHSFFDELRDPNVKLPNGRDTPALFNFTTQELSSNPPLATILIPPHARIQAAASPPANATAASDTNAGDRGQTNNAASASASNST
Experimental: Cell lysate (300 μg total protein) was adjusted to 1 mg/ml with cell lysis buffer and tumbled with 3 μg of primary antibody for 3 hours at 4° C. 30 μL of protein A Sepharose beads were added and tumbled for a further 1 hour at 4° C. The beads were washed three times with 1 ml of cold lysis buffer and once with 1 ml of kinase buffer (50 mM Hepes pH 7.5, 10 mM MgCl2, 1 mM DTT, 2.5 mM EGTA and protease inhibitor cocktail II (Calbiochem)). Immune complexes bound to the PAS beads were resuspended in 30 μL of kinase buffer with or without the addition of GSK3β inhibitor II (3 μM in ethanol, Calbiochem) or ethanol and incubated at 30° C. for 20 minutes. 10 μCi of [γ-^32P] ATP and 5 μg of myelin basic protein (MBP, Upstate Biotech) was added and the reactions incubated at 30° C. for a further 20 minutes. Reactions were terminated by the addition of 2×SDS load buffer, heated at 95° C. for 2 minutes and resolved on a 12% SDS-polyacrylamide gel. Kinase activities were quantitated by phosphorimager analysis.
A common mechanism that triggers c-myc degradation is through its phosphorylation at threonine 58 (T58) by GSK3β (Hoang et al., (1995) Mol. Cell. Biol., 15:4031-4042; Sears et al., (2000) Genes Dev., 14:2501-2514; Gregory et al., (2003) J. Biol. Chem., 278:51606-51612). […]

c-myc = c-myc protein stability assay with proteosome inhibitor (immunoblot); type: cell-based, mouse; settings: EBs (−LIF), MG132 5 μM, 3 hours prior to harvesting
Experimental: Cells were lysed by incubating for one hour on ice in lysis buffer consisting of 50 mM Hepes pH 7.5, 1 mM EDTA, 1 mM EGTA, 250 mM NaCl, 10% glycerol, 0.1% Tween-20, 10 μg/ml TPCK, 50 μg/ml TLCK, 170 μg/ml PMSF, 0.5 mg/ml leupeptin, 0.7 mg/ml pepstatin and phosphatase inhibitor cocktail II (Calbiochem) with occasional vortexing/pipetting. Whole cell extracts (20-40 μg total protein) were separated by 10% SDS-PAGE, transferred to nitrocellulose membranes (BioRad), blocked with 3% BSA in TBSE (Tris HCl pH 7.5, 150 mM NaCl, 2 mM EDTA and 0.1% NP40) and probed with the indicated antibodies at 4° C. The following antibodies were used: anti-c-myc (N-262; Santa Cruz), anti-Oct4 (N-19; Santa Cruz), anti-tubulin (Serotech), anti-HDAC1 (Zymed), anti-Cdk2 (M2; Santa Cruz), anti-GSK3β (Transduction Laboratories). The anti-HDAC1 antibody detects both HDAC1 and HDAC2 and accordingly, a doublet is seen by immunoblot analysis. An antibody that recognizes the T58 phosphorylated form of c-myc (T58/S62, Cell Signaling Technology) was used to evaluate the status of c-myc^T58. […]
If so, it was predicted that c-myc would have enhanced stability. To test this possibility, the stability of c-myc was determined in undifferentiated ES cells relative to other cell types where its stability is in the order of 30 minutes or less (Hann & Eisenman, (1984) Mol. Cell. Biol., 4:2486-2497). […]

GSK3β [2] = assay: GSK3β nuclear localization in EBs after OA treatment (staining); type: cell-based, murine; settings: OA added to EBs, short incubation; data not shown
From the text: A key issue relating to the understanding of self-renewal is determining how GSK3β activity is suppressed in ESCs but activated in cells committed to differentiate. […] The cytoplasmic localization of GSK3β in mESCs was corroborated by subcellular fractionation using hypotonic lysis (FIG. 3).
This mechanism accounts for the observed decline in phospho-S9 and activation of GSK3β that occurs during the early stages of differentiation. CA inhibits PP1 and PP2A in contrast to OA, which selectively targets PP2A. This implicated PP2A as a S9 phosphatase in this system. This is supported by experiments showing that PP2A complexes with GSK3 and c-myc in d2 EBs (FIG. 4C). […] While it is possible that nuclear GSK3β was degraded during OA treatment and nascent GSK3β retained in the cytoplasm, it is also likely that GSK3β is transported out of the nucleus in response to OA treatment since only short incubation periods were used and GSK3β is normally a stable protein. This would be consistent with a model where GSK3β localization is controlled by the phosphorylation status of S9. It is known that PP2A dephosphorylates S62 on c-myc, resulting in its degradation (Sears, (2004) Cell Cycle, 3(9):1133-7).

Q: How did the “LY 294002 induced DE formation as determined by Sox17 expression” value (BG01 cells) turn out when O=C1Nc2cc(Br)ccc2/C1=C1/Nc2ccccc2/C1=N\O [BIO, 6-bromoindirubin-3′-oxime] was run?
A: blocks LY 294002 induced DE formation

Q: How did the “GSK3β S9 phosphorylation in d2 EBs” value (GSK3β^S9 phosphorylation) turn out when COC[C@@H]([C@H](O)[C@H](O)C(=O)NCC[C@H](C)c1nc(/C=C/C[C@@H]2O[C@]3(C[C@@H](O)[C@@H]2C)O[C@H]([C@H](C[C@H](O)[C@H](C)[C@H](O)[C@H](C)/C=C(C)/C(C)=C/C=C/C(C)=C\C#N)OC)[C@H](OP(=O)(O)O)C3(C)C)co1)N(C)C [Calyculin A] was run?
A: significantly increased S9 phosphorylation

Q: With Ic1cccc(CSc2nnc(-c3ccncc3)o2)c1 [GSK3β inhibitor II] as the molecule, how does the “immunoprecipitated GSK3β kinase activity” value (GSK3β [1]) read?
A: sensitive

Q: For CC(C)C[C@@H](C=O)NC(=O)[C@H](CC(C)C)NC(=O)[C@H](CC(C)C)NC(=O)OCc1ccccc1 [MG132] (Cbz-Leu-Leu-Leu-aldehyde), which “turnover of c-myc protein following LIF withdrawal” value (c-myc) is on record?
A: blocked

Q: What does the source list for CN1C(=O)/C(=C2\Nc3ccccc3\C2=N/O)c2ccc(Br)cc21 [MeBIO]?
A: LY 294002 induced DE formation as determined by Sox17 expression (BG01 cells; listed as MeBio): but not MeBio, blocks LY 294002 induced DE formation; LY 294002 induced DE formation as determined by Sox17 expression (BG01 cells; listed as meBio): but not meBio, blocked LY 294002 induced DE formation

Q: How did the “GSK3β S9 phosphorylation in d2 EBs” value (GSK3β^S9 phosphorylation) turn out when C=C1[C@@H](O)[C@@H]2O[C@]3(CC[C@H](/C=C/[C@@H](C)[C@@H]4CC(C)=C[C@@]5(O[C@H](C[C@@](C)(O)C(=O)O)CC[C@H]5O)O4)O3)CC[C@H]2O[C@@H]1[C@@H](O)C[C@H](C)[C@H]1O[C@@]2(CCCCO2)CC[C@H]1C [okadaic acid] was run?
A: significantly increased S9 phosphorylation

Q: What about the “GSK3β staining in the nucleus” value (GSK3β [2]) of the same molecule?
A: GSK3β staining in the nucleus disappeared
